In assay [1] the target is Recombinant Human Siglec-3/CD33 protein (His-CD33) (Homo sapiens (Human), UniProt P20138). Nature of the assay: Differential scanning fluorimetry (DSF) thermal shift assay. The assay is classed as binding. As for the experimental part:
In the DSF assay, as the temperature increases, the protein gets gradually unfolded, exposing hydrophobic regions in which a fluorescent dye binds causing the fluorescence signal to increase. The midpoint of the unfolding transitions is called the thermal melt (Tm) or denaturation temperature and the Tm was defined as the peak apex in the derivative curve. Here, the Tm temperature of CD33 in the presence and absence of A-001 at a concentration of 50 μM was examined.
Recombinant Human Siglec-3/CD33 protein was purchased from Acros (catalog no. CD3-H5226) and reagents used in this study are shown in the Table 1 below.
Lyophilized CD33 protein was received in 1 mg aliquots from Acros. The protein was diluted with 2.5 mL of sterile water to a concentration of 400 μg/mL (14.5 μM), aliquoted into 138 μL aliquots and stored as at −20° C. On the day of analysis, the protein was thawed and […] solution was diluted to […] using buffer containing 133 mM NaCl, 133 mM phosphate buffered solution and 13.9× Sypro Orange dye in water in a quantity to cover the amount of samples tested on the day of the analysis.
200 μM stock solutions of A-001 containing 0.2% DMSO in water was supplied by compound management in a 384-well plate format.
Sample matrix were prepared by adding 7.5 μL of the protein buffer stock solution followed by addition of 2.5 μL of the 200 μM compound solutions in 384-well PCR plates to give a final volume of 10 μL per well consisting of 0.5 μM CD33 protein, 100 mM phosphate buffered solution pH 7.4, 100 mM NaCl, 10× SYPRO orange dye and 50 μM compound concentration (final DMSO concentration ˜0.2%). Using the Applied Biosystems® Protein Thermal Shift software (algorithm version 1.3.), the denaturation temperature or thermal melt (Tm) of the unbound and ligand bound CD33 protein was automatically assigned and the difference in thermal melt (ΔTm D) was calculated using the derivative curve by the Protein Thermal Shift software.
Recombinant human CD33 protein (0.5 μM) was incubated under buffered conditions in the presence of SYPRO orange dye, a temperature gradient was applied and a thermogram was produced by monitoring the fluorescence. The Tm was defined as the peak apex in the derivative curve in the study. […] Addition of […] of A-001 (Blue lines) to the CD33 protein induced significant Tm increases (ΔTm D) of 12.2±0.7° C.

Assay [2] addresses Recombinant human CD33 protein (Homo sapiens (Human), UniProt P20138). Nature of the assay: CD33 competitive binding assay for HTS drug screen (fluorescent multivalent sialic acid probe). The procedure, abridged:
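Recombinant human CD33, coated overnight at 4° C from 10 μg/ml in pH 5.5 acetate, was preincubated briefly with compound. It was then exposed to a multivalent neutravidin/FITC/sialic acid analog A-375 probe (final 5 μM neutravidin, 15 μM A-375, 5 μM FITC) for 30 min at room temperature. After washing, bound FITC fluorescence was read.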

Where [3] appears, read: difference in thermal melt of CD33 protein (0.5 μM) with 50 μM compound.
The mark [4] stands for this setting: thermal melt shift of 0.5 μM CD33 protein with 50 μM compound.

The structures appear in SMILES notation. Where only a bound is given, the exact number is not on record here.

Consider 25 compounds from US20250313574A1, “SIALIC ACID DERIVATIVES AND METHODS OF USING SAME” (EISAI R&D MANAGEMENT CO., LTD., priority 2022, published 2025).

Chain of Recombinant Human Siglec-3/CD33 protein (His-CD33) (P20138 18-259): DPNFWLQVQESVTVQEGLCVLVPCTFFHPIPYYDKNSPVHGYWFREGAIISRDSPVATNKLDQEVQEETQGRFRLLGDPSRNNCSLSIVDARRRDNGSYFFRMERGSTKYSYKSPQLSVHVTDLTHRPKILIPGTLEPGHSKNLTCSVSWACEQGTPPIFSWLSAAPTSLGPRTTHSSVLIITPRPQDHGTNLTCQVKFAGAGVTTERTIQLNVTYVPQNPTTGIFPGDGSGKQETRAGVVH
Chain of Recombinant human CD33 protein (P20138 18-259): as above

The term EC50 denotes the concentration at which the effect is half-maximal. As to `Cc1cc2cc(C)c1OCCCCNC(=O)CCCCCC[C@]1(C(=O)O)C[C@H](O)[C@@H](NC(=O)Cn3cc(C4CCCCC4)nn3)[C@@H](O1)[C@H](O)[C@H](O)CNC2=O` [A-346], the “DSF (dTmD)” value in assay [1] (setting [3]) stood at 3.4 °C. Also, the concentration giving a half-maximal response (EC50) in assay [2] was found to be 13300 nM.

For the compound `CC(=O)N[C@H]1[C@H]([C@H](O)[C@H](O)CNC(=O)c2cccc(C)c2)O[C@@](CCN2CCOC[C@@]23CCN(C(=O)OC(C)(C)C)C3)(C(=O)O)C[C@@H]1O` [A-181], the “DSF (dTmD)” value in assay [1] (setting [4]) was determined as 10.9. The half-maximal effective concentration (EC50) in assay [2] amounted to 70 nM.

Regarding `CC(=O)N[C@H]1[C@H]([C@H](O)[C@H](O)CNC(=O)c2cc(C)c(O)c(C)c2)O[C@@](CC2OC(C)(C)O[C@H]2c2cccc(NC(=O)CC(C)(C)C)c2)(C(=O)O)C[C@@H]1O` (some centres unmarked) [A-303], in assay [1] (setting [3]), the “DSF (dTmD)” value was determined as 4.9 °C. For the same compound, in assay [2], the EC50 came to 1500 nM.

In the case of `CC(=O)N[C@H]1[C@H]([C@H](O)[C@H](O)CNC(=O)c2cc(C)c(O)c(C)c2)O[C@@](CCN2CCOC[C@@]23CCN(C(=O)C=C(C)C)C3)(C(=O)O)C[C@@H]1O` [A-078], the “DSF (dTmD)” value in assay [1] (setting [4]) stood at 9.4. In assay [2], the half-maximal effective concentration (EC50) turned out to be 115 nM.

As for `Cc1cc(C(=O)NC[C@@H](O)[C@@H](O)[C@@H]2O[C@@](C/C=C/c3cccc(CNC(=O)C4CCC[C@H](NS(C)(=O)=O)C4)c3)(C(=O)O)C[C@H](O)[C@H]2NC(=O)Cn2cc(C3CCCCC3)nn2)cc(C)c1O` (some centres unmarked) [A-282], the “DSF (dTmD)” value in assay [1] (setting [3]) came to 6.2 °C. The concentration giving a half-maximal response (EC50) in assay [2] stood at 1680 nM.

Take `CC(=O)N[C@H]1[C@H]([C@H](O)[C@H](O)CNC(=O)c2cc(C)c(O)c(C)c2)O[C@@](C/C=C/c2ccccc2CNC(=O)C2CCCOC2)(C(=O)O)C[C@@H]1O` (some centres unmarked) [A-233]: in assay [1] (setting [3]), the “DSF (dTmD)” value amounted to 3.0 °C. For the same compound, in assay [2], the EC50 is 8990 nM.

In the case of `CC(=O)N[C@H]1[C@H]([C@H](O)[C@H](O)CNC(=O)c2cc(C)c(O)c(C)c2)O[C@@](CCN2CCOC[C@@]23CCN(C(=S)NC2CC2)C3)(C(=O)O)C[C@@H]1O` [A-058], the “DSF (dTmD)” value in assay [1] (setting [4]) stood at 5.0. In assay [2], the EC50 is 1380 nM.

Turning to `CC(=O)N[C@H]1[C@H]([C@H](O)[C@H](O)CNC(=O)c2cc(C)c(O)c(C)c2)O[C@@](CCNC2(C)CCN(C(=O)OC(C)(C)C)C2)(C(=O)O)C[C@@H]1O` (some centres unmarked) [A-026], in assay [1] (setting [4]), the “DSF (dTmD)” value was 9.2. Also, in assay [2], the EC50 amounted to 830 nM.

Turning to `CC(=O)N[C@H]1[C@H]([C@H](O)[C@H](O)CNC(=O)c2cc(C)c(O)c(C)c2)O[C@@](C/C=C/c2cccc(CNC(=O)c3cccc(Nc4nccs4)c3)c2)(C(=O)O)C[C@@H]1O` [A-241], in assay [1] (setting [3]), the “DSF (dTmD)” value was 5.3 °C. For the same compound, the EC50 in assay [2] came to 7970 nM.

Consider `CC(=O)N[C@H]1[C@H]([C@H](O)[C@H](O)CNC(=O)c2cc(F)c(F)c(F)c2)O[C@@](CCN2CCOC[C@@]23CCN(C(=O)OC(C)(C)C)C3)(C(=O)O)C[C@@H]1O` [A-185], for which the “DSF (dTmD)” value in assay [1] (setting [4]) was 5.0. The EC50 in assay [2] stood at 3600 nM.

Turning to `CC(=O)N[C@H]1[C@H]([C@H](O)[C@H](O)CNC(=O)c2ccc3ncccc3n2)O[C@@](CCN2CCOC[C@@]23CCN(C(=O)OC(C)(C)C)C3)(C(=O)O)C[C@@H]1O` [A-114], the “DSF (dTmD)” value in assay [1] (setting [4]) is given as 12.4. In addition, the half-maximal effective concentration (EC50) in assay [2] was 22 nM.

In the case of `C=C[C@@H]1CN(C(=O)OC(C)(C)C)C[C@]1(C)NCC[C@]1(C(=O)O)C[C@H](O)[C@@H](NC(C)=O)[C@H]([C@H](O)[C@H](O)CNC(=O)c2cc(C)c(O)c(C)c2)O1` [A-035], in assay [1] (setting [4]), the “DSF (dTmD)” value is 7.4. For the same compound, the EC50 in assay [2] worked out at 413 nM.

Turning to `CC(=O)N[C@H]1[C@H]([C@H](O)[C@H](O)CNC(=O)c2coc(C)c2)O[C@@](CCN2CCOC[C@@]23CCN(C(=O)OC(C)(C)C)C3)(C(=O)O)C[C@@H]1O` [A-158], the “DSF (dTmD)” value in assay [1] (setting [4]) came out at 10.4. Further, the EC50 in assay [2] was found to be 133 nM.

As for `CC(=O)N[C@H]1[C@H]([C@H](O)[C@H](O)CNC(=O)c2ccc(C)c(F)c2)O[C@@](CCN2CCOC[C@@]23CCN(C(=O)OC(C)(C)C)C3)(C(=O)O)C[C@@H]1O` [A-149], the “DSF (dTmD)” value in assay [1] (setting [4]) is given as 10.7. Further, in assay [2], the 50% effective concentration (EC50) is 133 nM.

On to `CC(=O)N[C@H]1[C@H]([C@H](O)[C@H](O)CNC(=O)c2cc(C)c(O)c(C)c2)O[C@@](C/C=C/c2ccccc2CNC(=O)OC(C)(C)C)(C(=O)O)C[C@@H]1O` [A-288], for which the “DSF (dTmD)” value in assay [1] (setting [3]) came out at 5.3 °C. Moreover, the EC50 in assay [2] turned out to be 2680 nM.

As to `CC(=O)N[C@H]1[C@H]([C@H](O)[C@H](O)CNC(=O)c2cc(C)c(C(N)=O)c(C)c2)O[C@@](CCN2CCOC[C@@]23CCN(C(=O)OC(C)(C)C)C3)(C(=O)O)C[C@@H]1O` [A-141], the “DSF (dTmD)” value in assay [1] (setting [4]) was determined as 7.0. Besides, the 50% effective concentration (EC50) in assay [2] turned out to be 350 nM.

Consider `CC(=O)N[C@H]1[C@H]([C@H](O)[C@H](O)CNC(=O)c2cc(C)c(O)c(C)c2)O[C@@](C/C=C/c2cccc(CNC(=O)c3ccc4[nH]c(C(C)O)nc4c3)c2)(C(=O)O)C[C@@H]1O` (some centres unmarked) [A-243], for which the “DSF (dTmD)” value in assay [1] (setting [3]) was 5.4 °C. In addition, in assay [2], the EC50 is 255 nM.

In the case of `CC(=O)N[C@H]1[C@H]([C@H](O)[C@H](O)CNC(=O)c2cc(C)c(O)c(C)c2)O[C@@](CCN2CCOC[C@@]23CCN(C(=O)OC(C)(C)C)C3)(C(=O)NS(=O)(=O)C(F)(F)F)C[C@@H]1O` [A-367], in assay [1] (setting [3]), the “DSF (dTmD)” value was 0.1 °C. The half-maximal effective concentration (EC50) in assay [2] is over 100000 nM.

Regarding `CC(=O)N[C@H]1[C@H]2O[C@](C(=O)O)(C/C=C/COC[C@H](NC(=O)C3CCCOC3)COCCOc3c(C)cc(cc3C)C(=O)NC[C@@H](O)[C@H]2O)C[C@@H]1O` (some centres unmarked) [A-339], in assay [1] (setting [3]), the “DSF (dTmD)” value amounted to 4.4 °C. The EC50 in assay [2] was determined as 5910 nM.

Regarding `CC(=O)N[C@H]1[C@H]([C@H](O)[C@H](O)CNC(=O)c2cc(C)c(O)c(C)c2)O[C@@](C/C=C/c2cccc(C3CCCN3C(=O)OC(C)(C)C)c2)(C(=O)O)C[C@@H]1O` (some centres unmarked) [A-295], the “DSF (dTmD)” value in assay [1] (setting [3]) is 4.0 °C. Also, in assay [2], the EC50 worked out at 6640 nM.

`CC(=O)N[C@H]1[C@H]([C@H](O)[C@H](O)CNC(=O)c2cc(C)c(O)c(C)c2)O[C@@](CCN2CCOC[C@@]23CCN(C(=O)NC(C)(C)C)C3)(C(=O)O)C[C@@H]1O` [A-042]: the “DSF (dTmD)” value in assay [1] (setting [4]) is listed as 13.3. The concentration giving a half-maximal response (EC50) in assay [2] is 12 nM.

Take `Cc1cc(C(=O)NC[C@@H](O)[C@@H](O)[C@@H]2O[C@@](OC3CCCCC3NC(=O)CN(C)C(=O)OCc3cccc(C(=O)NC4CC4)c3)(C(=O)O)C[C@H](O)[C@H]2NC(=O)Cn2cc(C3CCCCC3)nn2)cc(C)c1O` (some centres unmarked) [A-326]: the “DSF (dTmD)” value in assay [1] (setting [3]) came out at 4.0 °C. In addition, the EC50 in assay [2] was 13600 nM.

In the case of `COc1cc(C(=O)NCc2cccc(/C=C/C[C@]3(C(=O)O)C[C@H](O)[C@@H](NC(=O)Cn4cc(C5CCCCC5)nn4)[C@H]([C@H](O)[C@H](O)CNC(=O)c4cc(C)c(O)c(C)c4)O3)c2)ccc1O` [A-279], in assay [1] (setting [3]), the “DSF (dTmD)” value was found to be 4.5 °C. In addition, in assay [2], the EC50 turned out to be 10400 nM.

Consider `CC(=O)N[C@H]1[C@H]([C@H](O)[C@H](O)CNC(=O)c2cccc(SC(F)(F)F)c2)O[C@@](CCN2CCOC[C@@]23CCN(C(=O)OC(C)(C)C)C3)(C(=O)O)C[C@@H]1O` [A-169], for which, in assay [1] (setting [4]), the “DSF (dTmD)” value is 6.2. The 50% effective concentration (EC50) in assay [2] stood at 4720 nM.

Take `CC(=O)N[C@H]1[C@H]([C@H](O)[C@H](O)CNC(=O)c2cc(C)c3[nH]c(CO)cc3c2)O[C@@](CCN2CCOC[C@@]23CCN(C(=O)OC(C)(C)C)C3)(C(=O)O)C[C@@H]1O` [A-134]: the “DSF (dTmD)” value in assay [1] (setting [4]) is 15.8. Further, the half-maximal effective concentration (EC50) in assay [2] was 14 nM.
